Reference: US20130244950A1, “COMBINATION THERAPY FOR CHEMORESISTANT CANCERS” (CELGENE CORPORATION, priority 2011, published 2013)
Read-outs that look alike come from different tables or passages of the source.

Key:
[1] = cited from earlier work
[2] = system: ccRCC cell lines A498 and KIJ265T and TNBC cell lines MDA231 and BT20; assay: Drug treatments and proliferation assay (cell counting, Coulter Particle Counter); format: cell-based, Human
Procedure: Human renal cell carcinoma cell lines A498 (ATCC, Manassas, Va.) and KIJ265T (derived from primary tumor site stage 4 human renal cell carcinoma patient tissue established in the Copland laboratory), as well as triple negative breast cancer cell lines BT-20 (ATCC) and MDA-231 (ATCC) were maintained in phenol red free DMEM medium (Cellgro, Herndon, Va.) supplemented with 10% FBS (Hyclone, Logan, Utah) and penicillin-streptomycin (Invitrogen, Carlsbad, Calif.) at 37° C. in humidified conditions with 5% CO2.
DMSO was used for vehicle control. […] Cells were trypsinized 24 hours later and counted.

KIJ265T ccRCC cell line = assay: Cell death analysis via flow cytometry (propidium iodide); format: cell-based, Human; conditions: 5 nM romidepsin and/or 1 μM decitabine, 72 hour treatment
Procedure: Cells were treated with the optimal combinatorial therapy and appropriate control groups were prepared. After 72 hour treatment both adhered and floating cells were collected, centrifuged at 4° C., and washed using DPBS. Cells were centrifuged and re-suspended in 1× cold binding buffer (BD Pharmingen, San Jose, Calif.) at a concentration of 1×10^6 cells per ml. Cells were stained for 10 minutes with propidium iodide (BD Pharmingen), and FACS analysis was performed using Accuri C6 flow cytometer (Accuri, Ann Arbor, Mich.). Unstained cells were used as controls for setting the cell population parameters.

BT20 cell line = assay: as above; format: cell-based, Human; conditions: 5 nM romidepsin and/or 1 μM decitabine, 72 hour treatment
[3] = system: PARP cleavage in KIJ265T and MDA-231 parent cell lines; assay: PARP cleavage after recombinant human sFRP1; format: cell-based; conditions: single dose of 1.4 nM sFRP1
MDA231 and KIJ265T cells = assay: Proliferation of cells treated with recombinant human sFRP1; format: cell-based; conditions: escalating doses of recombinant sFRP1 in the media, 72 hours
Procedure: For the treatment of cells with recombinant human sFRP1, MDA231 and KIJ265T cells were seeded in a 96-well culture plate at 5000 cells per well in 100 μl DMEM supplemented with PSA and 10% FBS. After overnight incubation, cells were washed in PBS and 100 μl of serum free DMEM containing the final concentration of sFRP1 was added. The cells were incubated for 6 hours Serum was re-introduced to these wells to a final concentration of 2% FBS. Plates were incubated for 72 hours before cells were trypsinized and counted.

Molecule: Nc1ncn([C@@H]2O[C@H](CO)[C@@H](O)[C@H]2O)c(=O)n1 [azacitidine, 4-amino-1-β-D-ribofuranozyl-s-triazin-2(1H)-one]
- solubility ([1]; acetone, ethanol and methyl ketone): insoluble
- solubility ([1]; dimethylsulfoxide (DMSO)): soluble
- solubility ([1]; ethanol/water (50/50), propylene glycol and polyethylene glycol): slightly soluble
- solubility ([1]; water, water-saturated octanol, 5% dextrose in water, N-methyl-2-pyrrolidone, normal saline and 5% Tween 80 in water): sparingly soluble

Molecule: Nc1ncn([C@H]2C[C@H](O)[C@@H](CO)O2)c(=O)n1 [decitabine, 4-amino-1-(2-deoxy-β-D-erythro-pentofuranosyl)-1,3,5-triazin-2(1H)one]
- effect on cell proliferation ([2]; decitabine alone, all tested doses (0.01 μM to 10 μM), 72 hours post drug exposure): minimal effect on cell proliferation
- solubility ([1]; dimethylsulfoxide (DMSO)): soluble
- solubility ([1]; ethanol/water (50/50), methanol/water (50/50) and methanol): slightly soluble
- solubility ([1]; water): sparingly soluble
- cell death induced above DMSO treated controls (KIJ265T ccRCC cell line): 6.3%

Molecule: C/C=C1\NC(=O)[C@H]2CSSCC/C=C/[C@H](CC(=O)N[C@H](C(C)C)C(=O)N2)OC(=O)[C@H](C(C)C)NC1=O [romidepsin, (1S,4S,7Z,10S,16E,21R)-7-ethylidene-4,21-bis(1-methylethyl)-2-oxa-12,13-dithia-5,8,20,23-tetrazabicyclo[8.7.6]tricos-16-ene-3,6,9,19,22-pentone]
- cell death in single treatment samples ([2]; 5 nM romidepsin, 3 day exposure): ~50%
- inhibition of cell proliferation ([2]; romidepsin alone, 2.5-100 nM dose range, 72 hours post drug exposure): significant inhibition of cell proliferation
- cell death induced compared to DMSO controls (BT20 cell line): 5.8%

B1: recombinant human sFRP1: recombinant human secreted frizzled related protein 1, negative regulator of Wnt signaling (protein, UniProt Q8N474 32-314, looked up)
Secreted frizzled-related …: SEYDYVSFQSDIGPYQSGRFYTKPPQCVDIPADLRLCHNVGYKKMVLPNLLEHETMAEVKQQASSWVPLLNKNCHAGTQVFLCSLFAPVCLDRPIYPCRWLCEAVRDSCEPVMQFFGFYWPEMLKCDKFPEGDVCIAMTPPNATEASKPQGTTVCPPCDNELKSEAIIEHLCASEFALRMKIKEVKKENGDKKIVPKKKKPLKLGPIKKKDLKKLVLYLKNGADCPCHQLDNLSHHFLIMGRKVKSQYLLTAIHKWDKKNKEFKNFMKKMKNHECPTFQSVFK
- induction of apoptosis (PARP cleavage) [3]: induction of apoptosis as seen by PARP cleavage
- cell proliferation (MDA231 and KIJ265T cells): dose-dependent decrease
